pKi: −log10 of the molar value. Like-named read-outs stand apart in the source and are kept apart here.
Legend:
Assay type in all cases: biochemical
PKC alpha kinase = PKC alpha kinase (Homo sapiens, UniProt P17252); experiment: PKC alpha kinase inhibition, coupled-enzyme NADH absorbance assay (Ki)
Method: An assay buffer solution was prepared which consisted of 100 mM HEPES (pH 7.5), 10 mM MgCl2, 25 mM NaCl, 0.1 mM EDTA, 100 μM CaCl2 and 0.01% Brij. […] To 16 μL of this enzyme buffer, in a 384 well plate, was added 1 μL of VRT stock solution in DMSO. The mixture was allowed to equilibrate for 10 mins at 30° C. The enzyme reaction was initiated by the addition of 16 μL stock ATP solution prepared in assay buffer to a final assay concentration of 130 μM. Initial rate data was determined from the rate of change of absorbance at 340 nm (corresponding to stoichiometric consumption of NADH) using a Molecular Devices Spectramax plate reader (Sunnyvale, Calif.) over 15 mins at 30° C. […] Ki values were calculated from initial rate data by non-linear regression using the Prism software package (Prism 4.0a, Graphpad Software, San Diego, Calif.).

PKC theta kinase = PKC theta kinase (Homo sapiens, UniProt Q04759); experiment: PKC theta kinase inhibition, coupled-enzyme NADH absorbance assay (Ki)
Method: (§1) An assay buffer solution was prepared which consisted of 100 mM HEPES (pH 7.5), 10 mM MgCl2, 25 mM NaCl, 0.1 mM EDTA and 0.01% Brij. […] To 60 μL of this enzyme buffer, in a 384 well plate, was added 2 μL of VRT stock solution in DMSO. The mixture was allowed to equilibrate for 10 mins at 30° C. […] Ki values were calculated from initial rate data by non-linear regression using the Prism software package (Prism 4.0a, Graphpad Software, San Diego, Calif.).

PKC delta kinase = PKC delta kinase (Homo sapiens, UniProt Q05655); experiment: PKC delta kinase inhibition, coupled-enzyme NADH absorbance assay (Ki)
Method: as §1, with “To 16” for “To 60”, “added 1” for “added 2”

[1] = 130 μM ATP, 4.5 nM PKC alpha, 30° C., read-out: Ki PKC alpha
[2] = 240 μM ATP, 18 nM PKC theta, 30° C., read-out: Ki PKC theta
[3] = 150 μM ATP, 46 nM PKC delta, 30° C., read-out: Ki PKC delta

Chain of PKC delta kinase (Q05655 whole entry): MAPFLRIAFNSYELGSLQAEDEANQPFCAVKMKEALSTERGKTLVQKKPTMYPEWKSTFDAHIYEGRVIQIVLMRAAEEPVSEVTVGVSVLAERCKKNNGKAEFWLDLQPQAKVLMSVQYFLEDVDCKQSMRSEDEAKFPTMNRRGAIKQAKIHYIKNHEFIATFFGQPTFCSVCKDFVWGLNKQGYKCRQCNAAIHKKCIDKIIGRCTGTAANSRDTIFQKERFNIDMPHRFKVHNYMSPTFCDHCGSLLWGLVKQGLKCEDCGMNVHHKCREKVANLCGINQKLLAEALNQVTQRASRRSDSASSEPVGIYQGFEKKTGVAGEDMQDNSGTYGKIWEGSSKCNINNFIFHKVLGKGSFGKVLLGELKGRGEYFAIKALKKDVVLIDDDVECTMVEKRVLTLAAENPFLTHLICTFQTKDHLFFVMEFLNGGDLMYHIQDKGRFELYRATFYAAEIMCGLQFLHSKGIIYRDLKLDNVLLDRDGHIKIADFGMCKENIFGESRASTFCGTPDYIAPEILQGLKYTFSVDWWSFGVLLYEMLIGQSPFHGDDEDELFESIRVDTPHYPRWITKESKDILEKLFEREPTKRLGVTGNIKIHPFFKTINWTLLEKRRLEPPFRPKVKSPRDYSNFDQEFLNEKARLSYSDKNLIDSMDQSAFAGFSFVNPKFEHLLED
Chain of PKC theta kinase (Q04759 whole entry): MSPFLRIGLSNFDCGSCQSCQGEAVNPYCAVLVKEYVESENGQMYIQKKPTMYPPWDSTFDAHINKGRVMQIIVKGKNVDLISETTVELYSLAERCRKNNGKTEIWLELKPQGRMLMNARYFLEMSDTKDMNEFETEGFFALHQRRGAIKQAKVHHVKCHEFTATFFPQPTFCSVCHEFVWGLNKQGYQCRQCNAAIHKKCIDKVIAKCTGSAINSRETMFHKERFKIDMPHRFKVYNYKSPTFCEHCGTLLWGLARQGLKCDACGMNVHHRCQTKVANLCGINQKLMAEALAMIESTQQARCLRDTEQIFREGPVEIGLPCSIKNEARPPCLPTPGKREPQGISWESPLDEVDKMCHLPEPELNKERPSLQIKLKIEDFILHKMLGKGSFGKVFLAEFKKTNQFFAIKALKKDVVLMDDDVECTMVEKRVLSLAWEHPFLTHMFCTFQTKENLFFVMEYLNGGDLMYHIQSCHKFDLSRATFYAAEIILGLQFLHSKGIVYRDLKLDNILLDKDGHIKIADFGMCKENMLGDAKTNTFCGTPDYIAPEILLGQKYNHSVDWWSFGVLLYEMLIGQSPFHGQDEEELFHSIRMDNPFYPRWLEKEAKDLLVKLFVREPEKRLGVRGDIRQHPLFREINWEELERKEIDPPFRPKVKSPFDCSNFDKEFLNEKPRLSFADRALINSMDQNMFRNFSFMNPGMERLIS

Row | Structure (SMILES) | pKi (PKC alpha kinase) | pKi (PKC theta kinase) | pKi (PKC delta kinase) | pKi (PKC alpha kinase; [1]) | pKi (PKC theta kinase; [2]) | pKi (PKC delta kinase; [3])
1 | NCCc1cc(Br)cc(-c2ccnc3[nH]ncc23)c1 [Compound 176] | < 5.92 | > 6.30 | > 5.55 |  |  | 
2 | CC(C)=CC1(c2cccc(-c3ccnc4[nH]ncc34)c2)CCNC1 (stereo not drawn) [Compound 199] |  |  |  | > 6.30 | > 7.30 | > 6.30
3 | CCC(C)(CO)c1cc(C)cc(-c2ccnc3[nH]ncc23)c1 (stereo not drawn) [Compound 241] |  |  |  | > 6.30 | > 7.30 | > 5.55
4 | CCC(F)(CN)c1cc(C)cc(-c2ccnc3[nH]nc(C(F)(F)F)c23)c1 (stereo not drawn) [Compound 293] |  |  |  | > 6.30 | > 7.30 | > 6.30
5 | CCC(C)(CN(C)C)c1cccc(-c2ccnc3[nH]ncc23)c1 (stereo not drawn) [Compound 138, 2-(3-(1H-pyrazolo[3,4-b]pyridin-4-yl)phenyl)-N,N,2-trimethylbutan-1-amine] |  |  |  | > 5.55 | > 6.30 | > 5.55
6 | CC(CN)(CC1CC1)c1cccc(-c2ccnc3[nH]ncc23)c1 (stereo not drawn) [Compound 129] |  |  |  | > 6.30 | > 7.30 | > 7.30
7 | CNCc1cc(-c2ccnc3[nH]ncc23)cc(C(C)(C)C#N)c1 [Compound 75] |  |  |  | < 5.55 | > 5.55 | < 5.55
8 | CC(C)(C#N)c1cc(NCCCN)cc(-c2ccnc3[nH]ncc23)c1 [Compound 21] |  |  |  | < 5.55 | > 6.30 | < 5.55
9 | CCCc1cc(-c2ccnc3[nH]ncc23)cc(C(C)(CC)CN)c1 (stereo not drawn) [Compound 130] |  |  |  | > 5.55 | > 7.30 | > 5.55
10 | CC(F)c1cc(-c2ccnc3[nH]ncc23)cc(C(C)(C)C#N)c1 (stereo not drawn) [Compound 88] |  |  |  | > 5.55 | > 7.30 | > 5.55
11 | CCc1n[nH]c2nccc(-c3cc(C)cc(C4(CN)CC4)c3)c12 [Compound 265] |  |  |  | > 6.30 | > 7.30 | > 6.30
12 | N#CC1(c2cccc(-c3ccnc4[nH]nc(C(F)(F)F)c34)c2)CCC1 [Compound 279] |  |  |  | > 5.55 | > 7.30 | > 5.55
13 | N#C[C@]1(c2cccc(-c3ccnc4[nH]ncc34)c2)C[C@@H](O)C1 [Compound 220] |  |  |  | < 5.92 | > 6.30 | < 5.70
14 | CC#CCC(C)(CN)c1cc(C)cc(-c2ccnc3[nH]ncc23)c1 (stereo not drawn) [Compound 234] |  |  |  | > 6.30 | > 7.30 | > 7.30
15 | OCC1(c2cccc(-c3ccnc4[nH]ncc34)c2)CCC1 [Compound 242] |  |  |  | < 5.92 | > 6.30 | < 5.70
16 | CCC(C)(CN)c1cc(Cl)cc(-c2ccnc3[nH]ncc23)c1 (stereo not drawn) [Compound 133] |  |  |  | > 6.30 | > 7.30 | > 6.30
17 | CC(C)(C#N)c1cc(-c2ccc[nH]2)cc(-c2ccnc3[nH]ncc23)c1 [Compound 59] |  |  |  | < 5.55 | > 6.30 | < 5.55
18 | CCC(C#N)c1cccc(-c2ccnc3[nH]ncc23)c1 (stereo not drawn) [Compound 66] |  |  |  | > 5.55 | > 6.30 | > 5.55
19 | OCC1CCc2ccc(-c3ccnc4[nH]ncc34)cc21 (stereo not drawn) [Compound 203, (6-(1H-Pyrazolo[3,4-b]pyridin-4-yl)-2,3-dihydro-1H-inden-1-yl)methanol] |  |  |  | < 5.55 | > 5.55 | < 5.55
20 | CC(C)(CN)c1cc(Br)cc(-c2ccnc3[nH]ncc23)c1 [Compound 34] |  |  |  | > 5.55 | > 7.30 | > 6.30
21 | NCC1(c2cc(F)cc(-c3ccnc4[nH]nc(C(F)(F)F)c34)c2)CCOCC1 [Compound 276] |  |  |  | > 6.30 | > 7.30 | > 5.55
22 | N#CC1(c2cccc(-c3ccnc4[nH]ncc34)c2)CCCC1 [Compound 74] |  |  |  | > 5.55 | > 6.30 | > 5.55
23 | NCC1(c2cccc(-c3ccnc4[nH]nc(C(F)(F)F)c34)c2)CCOCC1 [Compound 214] |  |  |  | > 6.30 | > 7.30 | > 6.30
24 | CCSc1cc(-c2ccnc3[nH]ncc23)cc(C(C)(CC)CN)c1 (stereo not drawn) [Compound 166] |  |  |  | > 6.30 | > 7.30 | > 5.55
25 | NC(CCC1CCCC1)c1cccc(-c2ccnc3[nH]ncc23)c1 (stereo not drawn) [Compound 253] |  |  |  | < 5.92 | < 6.15 | < 5.92
26 | C/C=C\c1cc(-c2ccnc3[nH]ncc23)cc(C(C)(CC)CN)c1 (stereo not drawn) [Compound 143] |  |  |  | > 5.55 | > 6.30 | > 6.30
27 | COC(CN)c1cc(C)cc(-c2ccnc3[nH]ncc23)c1 (stereo not drawn) [Compound 248] |  |  |  | > 5.55 | > 6.30 | > 5.55

Row | Structure (SMILES) | pKi (PKC alpha kinase) | pKi (PKC theta kinase) | pKi (PKC delta kinase) | pKi (PKC alpha kinase; [1]) | pKi (PKC theta kinase; [2]) | pKi (PKC delta kinase; [3])
28 | C=Cc1ccc(-c2ccnc3n[nH]cc23)cc1C(C)(C)C#N [Compound 84] |  |  |  | < 5.55 | > 5.55 | < 5.55
29 | C#CCC(CC)(CN)c1cccc(-c2ccnc3[nH]ncc23)c1 (stereo not drawn) [Compound 178] |  |  |  | > 6.30 | > 7.30 | > 6.30
30 | NCC1(c2cccc(-c3ccnc4[nH]ncc34)c2)CC=C(F)CC1 (stereo not drawn) [Compound 184] |  |  |  | > 6.30 | > 7.30 | > 6.30
31 | CCC(C)(CN)c1cc(Br)cc(-c2ccnc3[nH]ncc23)c1 (stereo not drawn) [Compound 167] |  |  |  | > 6.30 | > 7.30 | > 6.30
32 | CC(C)C(C)(C#N)c1cccc(-c2ccnc3[nH]ncc23)c1 (stereo not drawn) [Compound 70] |  |  |  | > 5.55 | > 6.30 | > 5.55
33 | CCc1cc(-c2ccnc3[nH]ncc23)cc(C(C)(CC)CN)c1 (stereo not drawn) [Compound 131] |  |  |  | > 6.30 | > 7.30 | > 5.55
34 | Cc1cc(-c2ccnc3[nH]ncc23)cc(C(C)(C)CN)c1 [Compound 32] |  |  |  | > 6.30 | > 7.30 | > 6.30
35 | CC(N)c1cccc(-c2ccnc3[nH]ncc23)c1 (stereo not drawn) [Compound 246] |  |  |  | < 5.92 | > 6.30 | > 5.55
36 | Cc1cc(-c2ccnc3[nH]ncc23)cc(C2(CN)CNC(=O)O2)c1 (stereo not drawn) [Compound 310] |  |  |  | > 5.55 | > 7.30 | < 5.92
37 | CCc1n[nH]c2nccc(-c3cccc(C4(CN)COC4)c3)c12 [Compound 306] |  |  |  | < 5.92 | > 7.30 | > 6.30
38 | Cc1cc(-c2ccnc3[nH]ncc23)cc(C2(C#N)CCC2)c1 [Compound 85] |  |  |  | > 5.55 | > 7.30 | < 5.55
39 | CC(O)c1cc(-c2ccnc3[nH]ncc23)cc(C(C)(C)C#N)c1 (stereo not drawn) [Compound 22] |  |  |  | < 5.55 | > 6.30 | < 5.55
40 | CC/C=C\C1(c2cccc(-c3ccnc4[nH]ncc34)c2)CCNC1 (stereo not drawn) [Compound 198] |  |  |  | > 6.30 | > 7.30 | > 6.30
41 | NC1(c2cccc(-c3ccnc4[nH]ncc34)c2)CC1 [Compound 223] |  |  |  | < 5.92 | > 5.55 | < 5.70
42 | NCC1(c2cccc(-c3ccnc4[nH]ncc34)c2)CC1 [Compound 153] |  |  |  | > 5.55 | > 7.30 | > 5.55
43 | CCC(C)(C#N)c1cc(CCN)cc(-c2ccnc3[nH]ncc23)c1 (stereo not drawn) [Compound 127] |  |  |  | < 5.92 | > 6.30 | < 5.70
44 | CCc1n[nH]c2nccc(-c3cc(CCCN)cc(C4(C#N)CC4)c3)c12 [Compound 302] |  |  |  | > 5.55 | > 7.30 | > 6.30
45 | N#CC1(c2cc(CCCO)cc(-c3ccnc4[nH]nc(C(F)(F)F)c34)c2)CC1 [Compound 312] |  |  |  | > 6.30 | > 7.30 | > 5.55
46 | CC(C)CC(C)(C#N)c1cccc(-c2ccnc3[nH]ncc23)c1 (stereo not drawn) [Compound 71] |  |  |  | > 5.55 | > 5.55 | > 5.55
47 | C#Cc1cc(-c2ccnc3[nH]ncc23)cc(C(C)(C)CN)c1 [Compound 40] |  |  |  | > 5.55 | > 6.30 | > 6.30
48 | CC(CC#N)c1cc(Br)cc(-c2ccnc3[nH]ncc23)c1 (stereo not drawn) [Compound 238] |  |  |  | > 5.55 | > 6.30 | > 5.55
49 | NCC1(c2cc(N)cc(-c3ccnc4[nH]ncc34)c2)CCC1 [Compound 190] |  |  |  | < 5.92 | > 6.30 | < 5.70
50 | C=Cc1cc(-c2ccnc3[nH]ncc23)cc(C(C)(C)CN)c1 [Compound 36] |  |  |  | > 5.55 | > 6.30 | > 5.55
51 | N#CC1(c2cccc(-c3ccnc4[nH]nc(Cl)c34)c2)CCC1 [Compound 259] |  |  |  | > 6.30 | > 7.30 | > 6.30
52 | CC(CN)(Cc1ccccc1)c1cccc(-c2ccnc3[nH]ncc23)c1 (stereo not drawn) [Compound 149] |  |  |  | > 6.30 | > 7.30 | > 6.30
53 | N#CC1(c2cccc(-c3ccnc4[nH]nc(Cl)c34)c2)CC1 [Compound 205] |  |  |  | > 6.30 | > 7.30 | > 7.30

Reference: patent publication US8173635B2, “Kinase inhibitors” (Vertex Pharmaceuticals Incorporated, priority 2007, dated 2012)
